From patent US8835495B2, “Pharmaceutical composition comprising cyclobenzaprine and aceclofenac in association” (Incrementha P, D & I Pesquisa, Desenvolvimento e Inovacao …, priority 2006, dated 2014)
Where a name gives a salt, the structure may show the parent alone.

Experiment: Comparative stability study of cyclobenzaprine hydrochloride and aceclofenac together and isolated (opened glass flasks, oven)
Format: physicochemical
Details: oven at 50° C. and 90% relative moisture, after 30 days

Row | content of active ingredient(s) by chromatographic analysis | Structure (SMILES)
1 | remained unaltered | O=C(O)COC(=O)Cc1ccccc1Nc1c(Cl)cccc1Cl [aceclofenac, 2-[2-[2-[(2,6-dichlorophenyl)amino]phenyl]acetyl]oxyacetic acid]
2 | remained unaltered | CN(C)CCC=C1c2ccccc2C=Cc2ccccc21 [cyclobenzaprine hydrochloride, 3-(5H-dibenzo[a,d]cyclohepten-5-ylidene)-N,N-dimethyl-1-propanamine]
